# Laboratory results taken from patent publication US20250353864A1, “INDAZOLE CONTAINING MACROCYCLES AND THEIR USE” (BLOSSOMHILL THERAPEUTICS, INC., priority 2022, published 2025).
# How the values were obtained:
# Type in all cases: biochemical
# EGFR WT = EGFR WT (Homo sapiens (Human), UniProt P00533); experiment: HotSpot radiometric kinase assay (Reaction Biology), EGFR WT; conditions: 10 μM ATP
# How it was run: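 IC50 values come from curve fits of ^33P incorporation captured on P81 filters after acid washing. Kinase reactions ran 120 min at room temperature with 10 μM ATP, added about 20 min after compound. Buffer was Hepes pH 7.5 containing Mg, DTT and 1% DMSO.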
# EGFR (D770_N771insNPG) = EGFR (D770_N771insNPG) (Homo sapiens (Human), UniProt P00533, INS770NPG); experiment: HotSpot radiometric kinase assay, EGFR (D770_N771insNPG); conditions: 10 μM ATP, read-out: EGFR (Δ770_N771insNPG) IC50
# How it was run: (§1)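 Radiometric filter-binding read-out: incorporated 33P was retained on P81 ion-exchange paper after washing away unbound phosphate. Reactions ran 120 min at room temperature with 10 μM final ATP, following ~20 min compound preincubation in Hepes pH 7.5 buffer containing 1% DMSO. IC50 from fitted curves.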
# EGFR Δ746-750 mutant = EGFR Δ746-750 mutant (Homo sapiens (Human), UniProt P00533, DEL746-750); experiment: HotSpot radiometric kinase assay, EGFR Δ746-750 mutant; conditions: 10 μM ATP
# How it was run: as §1
# [1] = target: EGFR Δ746-750/C797S mutant (Homo sapiens (Human), UniProt P00533, C797S/DEL746-750); experiment: HotSpot radiometric kinase assay, EGFR Δ746-750/C797S mutant; conditions: 10 μM ATP
# How it was run: as §1
# EGFR L858R mutant = EGFR L858R mutant (Homo sapiens (Human), UniProt P00533, L858R); experiment: HotSpot radiometric kinase assay, EGFR L858R mutant; conditions: 10 μM ATP
# How it was run: as §1
# EGFR L858R/T790M mutant = EGFR L858R/T790M mutant (Homo sapiens (Human), UniProt P00533, L858R/T790M); experiment: HotSpot radiometric kinase assay, EGFR L858R/T790M mutant; conditions: 10 μM ATP
# How it was run: as §1
# [2] = target: EGFR L858R/T790M/C797S mutant (Homo sapiens (Human), UniProt P00533, C797S/L858R/T790M); experiment: HotSpot radiometric kinase assay, EGFR L858R/T790M/C797S mutant; conditions: 10 μM ATP
# How it was run: as §1
# CLK1 = CLK1 (Homo sapiens (Human), UniProt P49759); experiment: Inhibition of CLK1 kinase activity evaluated at Nanosyn (ADP-Glo); conditions: ADP-Glo luminescence
# Protocol: (§2) Inhibition of CLK, CLK2, CLK3 and CLK4 Kinase Activity Evaluated at Nanosyn
# (§3) Kinase protein and substrate were pre-diluted in the HEPES assay buffer (100 mM HEPES, pH 7.5, 0.01% Triton X-100, 0.1% BSA, 5 mM MgCl2, […] DTT, 10 Sodium Orthovanadate, […] Beta-Glycerophosphate) dispensed into 384 well plate (5 μL per well). Control samples (0%-inhibition in the absence of inhibitor, DMSO only) and 100%-inhibition (in the absence of enzyme) were assembled in replicates of six and were used to calculate %-inhibition in the presence of compounds. Test compounds were added to the protein samples by acoustic dispensing (Labcyte Echo550). Concentration of DMSO was equalized to 1% in all samples. Reactions were initiated by addition of ATP by acoustic dispensing (Labcyte Echo550) and incubated according to assay specific incubation time. After incubation. 5 μL of Promega ADP-Glo reagent was added and incubated for 40 minutes. After 40 minutes, 10 uL of Promega kinase detection reagent was added. After 10 min of incubation with Kinase detection reagent, the luminescence was read on microplate reader (Biotek Synergy).
# CLK2 = CLK2 (Homo sapiens (Human), UniProt P49760); experiment: Inhibition of CLK2 kinase activity evaluated at Nanosyn (ADP-Glo); conditions: ADP-Glo luminescence
# Protocol: as §2, §3
# CLK3 = CLK3 (Homo sapiens (Human), UniProt P49761); experiment: Inhibition of CLK3 kinase activity evaluated at Nanosyn (ADP-Glo); conditions: ADP-Glo luminescence
# Protocol: as §2, §3
# CLK4 = CLK4 (Homo sapiens (Human), UniProt Q9HAZ1); experiment: Inhibition of CLK4 kinase activity evaluated at Nanosyn (ADP-Glo); conditions: ADP-Glo luminescence
# Protocol: as §2, §3
# Sequence of EGFR WT (P00533 25-1210): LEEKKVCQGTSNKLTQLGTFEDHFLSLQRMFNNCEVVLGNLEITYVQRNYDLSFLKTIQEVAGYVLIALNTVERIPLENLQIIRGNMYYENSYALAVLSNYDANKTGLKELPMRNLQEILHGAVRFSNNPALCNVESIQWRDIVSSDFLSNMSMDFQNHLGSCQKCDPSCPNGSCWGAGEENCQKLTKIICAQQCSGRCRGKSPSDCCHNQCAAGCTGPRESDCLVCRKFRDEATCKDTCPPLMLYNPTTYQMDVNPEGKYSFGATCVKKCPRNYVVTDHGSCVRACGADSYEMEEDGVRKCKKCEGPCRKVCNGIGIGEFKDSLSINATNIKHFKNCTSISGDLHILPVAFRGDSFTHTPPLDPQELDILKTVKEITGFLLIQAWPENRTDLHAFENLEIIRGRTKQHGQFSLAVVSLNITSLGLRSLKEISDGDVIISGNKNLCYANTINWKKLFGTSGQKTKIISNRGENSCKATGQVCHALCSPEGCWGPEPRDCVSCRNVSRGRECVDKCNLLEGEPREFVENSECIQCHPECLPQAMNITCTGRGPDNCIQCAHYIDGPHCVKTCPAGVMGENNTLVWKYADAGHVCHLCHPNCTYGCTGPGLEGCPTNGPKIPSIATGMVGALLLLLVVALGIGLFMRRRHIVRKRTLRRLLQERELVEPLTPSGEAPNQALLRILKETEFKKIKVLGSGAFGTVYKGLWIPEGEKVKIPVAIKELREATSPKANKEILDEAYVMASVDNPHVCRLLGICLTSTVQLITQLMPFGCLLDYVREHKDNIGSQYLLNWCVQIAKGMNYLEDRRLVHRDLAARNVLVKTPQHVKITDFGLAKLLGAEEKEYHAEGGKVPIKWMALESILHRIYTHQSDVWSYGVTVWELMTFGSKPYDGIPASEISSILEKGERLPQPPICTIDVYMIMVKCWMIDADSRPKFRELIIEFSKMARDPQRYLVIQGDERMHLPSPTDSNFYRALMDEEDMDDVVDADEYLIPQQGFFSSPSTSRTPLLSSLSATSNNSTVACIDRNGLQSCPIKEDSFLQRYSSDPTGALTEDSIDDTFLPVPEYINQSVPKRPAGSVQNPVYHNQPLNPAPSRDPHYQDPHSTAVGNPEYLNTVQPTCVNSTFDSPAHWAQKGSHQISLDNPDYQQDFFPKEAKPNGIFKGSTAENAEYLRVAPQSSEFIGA
# Sequence of EGFR L858R/T790M/C797S mutant (P00533 25-1210 T790M/C797S/L858R): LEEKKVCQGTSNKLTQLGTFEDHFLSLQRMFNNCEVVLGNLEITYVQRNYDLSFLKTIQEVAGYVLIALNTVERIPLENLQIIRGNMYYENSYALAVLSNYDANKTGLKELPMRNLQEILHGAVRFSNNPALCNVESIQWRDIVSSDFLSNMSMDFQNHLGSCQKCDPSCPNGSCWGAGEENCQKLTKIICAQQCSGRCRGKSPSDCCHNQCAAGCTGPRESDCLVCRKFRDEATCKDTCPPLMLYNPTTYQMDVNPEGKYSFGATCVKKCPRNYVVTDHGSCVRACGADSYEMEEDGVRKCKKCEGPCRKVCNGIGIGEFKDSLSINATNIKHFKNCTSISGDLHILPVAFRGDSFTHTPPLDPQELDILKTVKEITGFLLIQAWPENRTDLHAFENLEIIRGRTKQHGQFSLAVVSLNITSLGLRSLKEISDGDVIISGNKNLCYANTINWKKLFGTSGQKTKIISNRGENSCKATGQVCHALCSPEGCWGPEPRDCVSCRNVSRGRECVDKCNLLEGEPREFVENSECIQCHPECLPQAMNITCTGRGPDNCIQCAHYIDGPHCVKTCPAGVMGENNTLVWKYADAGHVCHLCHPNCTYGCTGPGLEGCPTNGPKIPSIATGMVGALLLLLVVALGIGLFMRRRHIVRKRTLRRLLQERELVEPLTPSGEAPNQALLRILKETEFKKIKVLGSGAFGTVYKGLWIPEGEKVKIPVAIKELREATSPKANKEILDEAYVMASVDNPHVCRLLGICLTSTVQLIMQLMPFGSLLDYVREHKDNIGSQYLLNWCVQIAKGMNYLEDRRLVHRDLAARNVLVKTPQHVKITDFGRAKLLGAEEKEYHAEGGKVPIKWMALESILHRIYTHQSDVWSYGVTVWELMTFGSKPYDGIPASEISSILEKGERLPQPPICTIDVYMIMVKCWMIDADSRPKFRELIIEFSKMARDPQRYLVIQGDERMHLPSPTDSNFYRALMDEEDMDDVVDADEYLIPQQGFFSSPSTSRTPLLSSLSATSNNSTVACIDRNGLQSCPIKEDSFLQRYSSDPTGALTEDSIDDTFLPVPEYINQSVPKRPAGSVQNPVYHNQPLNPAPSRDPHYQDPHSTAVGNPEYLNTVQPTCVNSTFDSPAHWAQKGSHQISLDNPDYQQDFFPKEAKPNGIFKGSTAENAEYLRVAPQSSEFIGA
# Sequence of EGFR Δ746-750 mutant (P00533 other isoform, or with tags, fused parts or gaps del 1-668/del 746-750 limits assumed): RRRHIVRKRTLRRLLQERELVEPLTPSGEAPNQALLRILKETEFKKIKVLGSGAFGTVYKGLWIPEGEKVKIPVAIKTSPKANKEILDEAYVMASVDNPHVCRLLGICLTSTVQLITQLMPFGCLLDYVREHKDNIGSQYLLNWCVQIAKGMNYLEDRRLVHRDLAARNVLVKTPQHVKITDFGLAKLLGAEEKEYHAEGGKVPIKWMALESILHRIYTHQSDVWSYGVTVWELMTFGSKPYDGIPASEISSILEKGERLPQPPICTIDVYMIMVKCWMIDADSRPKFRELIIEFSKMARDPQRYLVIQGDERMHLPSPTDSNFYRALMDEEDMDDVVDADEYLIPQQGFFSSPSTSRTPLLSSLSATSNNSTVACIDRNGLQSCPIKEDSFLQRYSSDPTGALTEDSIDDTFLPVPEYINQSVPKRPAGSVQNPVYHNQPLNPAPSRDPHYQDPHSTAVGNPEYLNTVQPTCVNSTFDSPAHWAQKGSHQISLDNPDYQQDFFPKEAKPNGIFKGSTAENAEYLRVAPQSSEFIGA
# Sequence of EGFR (D770_N771insNPG) (P00533 other isoform, or with tags, fused parts or gaps del 1-668/ins NPG behind 770 limits assumed): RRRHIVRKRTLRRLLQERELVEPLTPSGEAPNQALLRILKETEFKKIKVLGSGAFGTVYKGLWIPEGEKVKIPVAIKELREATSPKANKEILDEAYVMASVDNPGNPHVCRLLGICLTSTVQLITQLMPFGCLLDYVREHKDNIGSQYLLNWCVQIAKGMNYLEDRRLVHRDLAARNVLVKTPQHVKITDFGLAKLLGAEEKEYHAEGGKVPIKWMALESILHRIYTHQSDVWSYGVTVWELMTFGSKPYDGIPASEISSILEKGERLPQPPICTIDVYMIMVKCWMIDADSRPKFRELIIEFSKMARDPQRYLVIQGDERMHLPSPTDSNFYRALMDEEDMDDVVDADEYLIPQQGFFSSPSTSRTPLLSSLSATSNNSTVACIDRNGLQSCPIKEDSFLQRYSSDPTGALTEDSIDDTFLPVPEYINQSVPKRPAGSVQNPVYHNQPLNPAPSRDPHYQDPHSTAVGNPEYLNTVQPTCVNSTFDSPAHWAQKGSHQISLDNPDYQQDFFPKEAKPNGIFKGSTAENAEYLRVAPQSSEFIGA
# Sequence of EGFR L858R mutant (P00533 25-1210 L858R): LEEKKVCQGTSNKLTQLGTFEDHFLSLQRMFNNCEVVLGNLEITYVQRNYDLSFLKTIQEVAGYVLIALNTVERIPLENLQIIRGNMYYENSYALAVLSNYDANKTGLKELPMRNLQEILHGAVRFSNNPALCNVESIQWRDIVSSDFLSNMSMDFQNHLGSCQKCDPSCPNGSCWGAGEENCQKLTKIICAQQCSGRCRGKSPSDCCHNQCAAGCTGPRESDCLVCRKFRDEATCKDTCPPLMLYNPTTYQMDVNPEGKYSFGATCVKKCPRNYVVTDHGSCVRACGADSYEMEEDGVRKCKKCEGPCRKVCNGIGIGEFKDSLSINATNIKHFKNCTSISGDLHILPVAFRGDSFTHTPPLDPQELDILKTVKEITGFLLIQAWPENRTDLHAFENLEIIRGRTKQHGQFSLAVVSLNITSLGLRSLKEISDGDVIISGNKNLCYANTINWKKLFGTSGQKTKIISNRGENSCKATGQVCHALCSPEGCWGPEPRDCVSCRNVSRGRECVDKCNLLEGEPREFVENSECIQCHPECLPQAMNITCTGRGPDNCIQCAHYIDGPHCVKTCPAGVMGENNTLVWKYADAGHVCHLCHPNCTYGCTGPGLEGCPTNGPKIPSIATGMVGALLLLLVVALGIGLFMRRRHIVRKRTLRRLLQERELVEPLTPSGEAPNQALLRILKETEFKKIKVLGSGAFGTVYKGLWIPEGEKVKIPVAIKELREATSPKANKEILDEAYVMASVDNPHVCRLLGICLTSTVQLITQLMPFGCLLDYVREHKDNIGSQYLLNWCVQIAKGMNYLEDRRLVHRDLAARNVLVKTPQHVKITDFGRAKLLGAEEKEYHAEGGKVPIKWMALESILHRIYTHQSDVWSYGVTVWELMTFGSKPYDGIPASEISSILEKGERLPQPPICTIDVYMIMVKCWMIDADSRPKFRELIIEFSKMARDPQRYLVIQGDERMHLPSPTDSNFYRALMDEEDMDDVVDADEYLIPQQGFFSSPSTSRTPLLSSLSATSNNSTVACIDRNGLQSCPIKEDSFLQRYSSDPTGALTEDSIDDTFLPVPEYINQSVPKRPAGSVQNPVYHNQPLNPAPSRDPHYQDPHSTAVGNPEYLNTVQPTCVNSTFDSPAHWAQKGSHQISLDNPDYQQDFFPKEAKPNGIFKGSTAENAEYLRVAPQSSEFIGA
SMILES,IC50 (EGFR WT) [nM],IC50 (EGFR (D770_N771insNPG)) [nM],IC50 (EGFR Δ746-750 mutant) [nM],IC50 [1] [nM],IC50 (EGFR L858R mutant) [nM],IC50 (EGFR L858R/T790M mutant) [nM],IC50 [2] [nM],IC50 (CLK1) [nM],IC50 (CLK2) [nM],IC50 (CLK3) [nM],IC50 (CLK4) [nM]
"CC(C)Oc1nn(CCO)c2c1/C=C/c1n[nH]c3ccc(cc13)-c1cnn(C)c1O[C@@H](CO)CN(C)C2 [Example 258, 2-{(10R,17E)-10-(hydroxymethyl)-8,12-dimethyl-16-[(propan-2-yl)oxy]-2,8,10,11,12,13-hexahydro-14H-3,5-ethenotripyrazolo[3,4-f:3′,4′-j:4″,3″-n][1,4]oxazacyclopentadecin-14-yl}ethan-1-ol]",5.72,15.8,1.22,1.26,1.56,0.48,2.17,0.5,0.23,17.2,1.04
CCOc1nn(C)c2c1/C=C/c1n[nH]c3cc(F)c(cc13)-c1cnn(C)c1OC1CCCN(C2)C1 (stereo in doubt) [Example 178],22.2,232,6.9,5.25,8.73,4.35,19.3,1.08,2.38,61.8,1.56
"CCOc1nn([C@@H](C)CO)c2c1/C=C/c1n[nH]c3cc(F)c(cc13)-c1cnn(C)c1OC[C@H](C)N(C(C)C)C2 [Example 228, (2S)-2-[(11S,17E)-16-ethoxy-19-fluoro-8,11-dimethyl-12-(propan-2-yl)-2,8,10,11,12,13-hexahydro-14H-3,5-ethenotripyrazolo[3,4-f:3′,4′-j:4″,3″- n][1,4]oxazacyclopentadecin-14-yl]propan-1-ol]",52.7,481,12.2,44.4,25.2,25.9,10.6,21.9,8.6,1000,34
"Cc1nn(CCO)c2c1/C=C/c1n[nH]c3ccc(cc13)-c1cnn(C)c1O[C@@H](C)CN(C(C)C)C2 [Example 114, 2-[(10S,17E)-8,10,16-trimethyl-12-(propan-2-yl)-2,8,10,11,12,13-hexahydro-14H-3,5-ethenotripyrazolo[3,4-f:3′,4′-j:4″,3″- n][1,4]oxazacyclopentadecin-14-yl]ethan-1-ol]",0.38,0.91,0.17,0.92,0.1,0.11,0.98,0.23,0.12,20.9,0.46
"Cc1nn(C)c2c1/C=C/c1n[nH]c3ccc(cc13)-c1cnn(C)c1O[C@@H](C)CN(C1CC1)C2 [Example 161, (10S,17E)-12-cyclopropyl-8,10,14,16-tetramethyl-2,10,11,12,13,14-hexahydro-8H-3,5-ethenotripyrazolo[3,4-f:3′,4′-j:4″,3″-n][1,4]oxazacyclopentadecine]",171,191,20,13.5,47.1,3.1,1.4,0.27,0.14,164,0.57
"CCOc1nn(CCO)c2c1/C=C/c1n[nH]c3cc(F)c(cc13)-c1cnn(C)c1O[C@@H]1CCCN(C2)C1 [Example 191, 2-[(10R,19E)-18-ethoxy-22-fluoro-8-methyl-2,10,11,12,13,15-hexahydro-3,5-etheno-10,14-methanotripyrazolo[3,4-h:3′,4′-l:4″,3″-p][1,6]oxazacycloheptadecin-16(8H)-yl]ethan-1-o]",19.8,102,9.04,4.19,5.61,4.23,2.63,2.42,4.37,43.4,2.41
"Cc1nn(C)c2c1/C=C/c1n[nH]c3ccc(cc13)-c1cnn(C)c1O[C@H]1CCCN(C2)C1 [Example 176, (10S,19E)-8,16,18-trimethyl-2,8,10,11,12,13,15,16-octahydro-3,5-etheno-10,14-methanotripyrazolo[3,4-h:3′,4′-l:4″,3″- p][1,6]oxazacycloheptadecine]",152,83.4,24.9,35.2,55.5,6.94,13.1,1.54,11.8,1000,1.44
"CCOc1nn([C@@H](C)CO)c2c1/C=C/c1n[nH]c3cc(F)c(cc13)-c1cnn(C)c1O[C@H](C)CN(C(C)C)C2 [Example 229, (2S)-2-[(10R,17E)-16-ethoxy-19-fluoro-8,10-dimethyl-12-(propan-2-yl)-2,8,10,11,12,13-hexahydro-14H-3,5-ethenotripyrazolo[3,4-f:3′,4′-j:4″,3″- n][1,4]oxazacyclopentadecin-14-yl]propan-1-ol]",24.8,38.6,1.94,4.05,7.1,4.07,1.24,131,59.6,1000,68.5
"C[C@H]1CN(C)Cc2c(c(OCC(F)(F)F)nn2CCO)/C=C/c2n[nH]c3cc(F)c(cc23)-c2cnn(C)c2O1 [Example 211, 2-[(10S,17E)-19-fluoro-8,10,12-trimethyl-16-(2,2,2-trifluoroethoxy)-2,8,10,11,12,13-hexahydro-14H-3,5-ethenotripyrazolo[3,4-f:3′,4′-j:4″,3″- n][1,4]oxazacyclopentadecin-14-yl]ethan-1-ol]",> 1000,> 1000,> 1000,2870,400,> 1000,> 1000,270,114,1,397
"CC(C)Oc1nn(CCO)c2c1/C=C/c1n[nH]c3ccc(cc13)-c1cnn(C)c1O[C@H](C)CN(C1CC1)C2 [Example 212, 2-{(10R,17E)-12-cyclopropyl-8,10-dimethyl-16-[(propan-2-yl)oxy]-2,8,10,11,12,13-hexahydro-14H-3,5-ethenotripyrazolo[3,4-f:3′,4′-j:4″,3″- n][1,4]oxazacyclopentadecin-14-yl}ethan-1-ol]",154,139,16.9,3.87,52.3,0.57,0.42,5.27,7.14,237,5.31
"CCOc1nn(CCO)c2c1/C=C/c1n[nH]c3ccc(cc13)-c1cnn(C)c1O[C@@H]1CCCN(C2)C1 [Example 137, 2-[(10R,19E)-18-ethoxy-8-methyl-2,10,11,12,13,15-hexahydro-3,5-etheno-10,14-methanotripyrazolo[3,4-h:3′,4′-l:4″,3″-p][1,6]oxazacycloheptadecin-16(8H)-yl]ethan-1-ol]",55.3,129,6.59,4.8,7.8,0.6,1.02,1.37,2.13,79.2,1.55
"CCOc1nn(CCO)c2c1/C=C/c1n[nH]c3ccc(cc13)-c1cnn(CC)c1O[C@@H](C)CN(C)C2 [Example 168, 2-[(10S,17E)-16-ethoxy-8-ethyl-10,12-dimethyl-2,8,10,11,12,13-hexahydro-14H-3,5-ethenotripyrazolo[3,4-f:3′,4′-j:4″,3″-n][1,4]oxazacyclopentadecin-14-yl]ethan-1-ol]",16.6,13.9,5.96,1.38,1.88,0.72,2.72,0.39,0.33,238,0.77
